This is an account of results in US20240139223A1, “SOY ISOFLAVONES FOR ASTHMA PREVENTION” (University of South Florida, priority 2021, published 2024).

For assay [1], the system named is pDCs. As to conditions: cited from earlier work.
In assay [2] the test system is human rhinovirus (HRV). As to conditions: compared with guideline-driven care alone; cited from earlier work.
Assay [3] has as its system PAI-1 production in normal human bronchial epithelial (NHBE) cells. Kind of assay: TGF-β1-induced PAI-1 gene expression and protein production in NHBE cells (real-time PCR, ELISA). The assay is classed as cell-based. As to conditions: for TGF-β1-induced PAI-1 protein production: 6 hours, NHBE. On the procedure: Normal human bronchial epithelial (NHBE) cells were cultured, as previously described in Cho S H, Lee S H, Kato A, Takabayashi T, Kulka M, Shin S C, et al. Cross-talk between human mast cells and bronchial epithelial cells in plasminogen activator inhibitor-1 production via transforming growth factor-b1. Am J Respir Cell Mol Biol 2015; 52:88-95, herein incorporated by reference in its entirety into this disclosure. […] Cell pellets were used for real-time PCR, and cell-culture supernatants were used for PAI-1 protein ELISA.
The PAI-1 concentration in the blood of subjects and supernatants of NHBE cells was measured in duplicate by means of ELISA (Assay Pro, St Charles, Mo), as previously described in Cho et al. 2015, herein incorporated by reference in its entirety into this disclosure. For mRNA analysis of PAI-1 (Hs00167155_m1), quantitative real-time PCR was performed with the ViiA 7 Real-Time PCR System (Applied Biosystems, Foster City, Calif). Expression of glyceraldehyde-3-phosphate dehydrogenase (GAPDH; Hs02786624_g1) was used as an internal control for normalization. Cycling conditions were as follows: 50° C. for 2 minutes (hold) for 1 cycle, 95° C. for 10 minutes (hold) for 1 cycle, and 95° C. for 15 seconds and 60° C. for 1 minute (cycling) for 40 cycles. Relative gene expression was calculated by using the comparative 2^−ΔΔCT method.
To investigate the cellular mechanism of the soy isoflavone/PAI-1 link, the inventors treated cultured NHBE cells with TGF-β1 (2 ng/mL) for 6 hours with and without genistein pretreatment. There was a significant increase in PAI-1 mRNA and protein production (about 10-fold) after adding TGF-β1 (FIG. 1). […] Soy isoflavones reduce asthma exacerbation in high PAI-1 producing genotype. (FIG. 2)
There was a significant increase of the PAI-1 mRNA and protein production (about 10-fold) after adding the TGF-β1 (FIG. 5).

For assay [4], the system named is murine model of asthma (BALB/c mice). The assay can be described thus: Airway hyperresponsiveness (total respiratory system resistance, FlexiVent) in OVA murine model of asthma. The assay is classed as in vivo, mouse. As to conditions: summary. Here is the method:
Eight-week-old BALB/c mice were purchased from The Jackson Lab and housed in standard laboratory conditions (12/12-h light/dark cycle, 22-24° C., 40-60% humidity). Forty female mice were divided into four groups (namely, OVA+Veh, OVA+Bio300, PBS+Veh, PBS+Bio300). Genistein (Bio300, Humanetics Corp.) was administered to two of the groups in conjunction with either OVA or PBS. The mice in each group (n=10) were equally divided into two cages (5 mice/cage) to provide appropriate space for the mice. […]
From Day 14 to Day 28, the OVA+Bio300 and PBS+Bio300 groups received Bio300 (100 ul) by oral gavage every other day. […] On Day 29, airway hyperresponsiveness (AHR) was assessed and tissues were obtained for further analysis.
All mice were anesthetized with ketamine, tracheostomized, and mechanically ventilated with a FlexiVent system (SCIREQ, Flexivent, Scireq Inc., Montreal, Canada) as described in Choi et al., incorporated by reference in its entirety herein. […] Volume changes due to thoracic expansion and alterations in tracheal pressure were measured in response to challenges with increasing concentrations of methacholine (3, 6, 12, 25, and 50 mg/mL) and reported as total respiratory system resistance (Rrs).

As to “omalizumab: costly biological agent blocking IgE, administered by injection”, the “Interferon alpha production from pDCs” value in assay [1] (ex vivo and in vivo treatment) was “restored”. Further, the “Reduction of FcεRIα expression on pDCs” value in assay [1] (omalizumab treatment, previous study) is “about 57%”. The “Duration of HRV infections, viral shedding, and risk of HRV-related illness” value in assay [2] is reported as “decreased”.
Take `O=c1c(-c2ccc(O)cc2)coc2cc(O)cc(O)c12` [genistein]: in assay [3] (FIG. 5 legend), the “PAI-1 production from human bronchial EC and mast cells” value is given as “significantly reduces”. Besides, the “TGF-β1-induced PAI-1 gene expression and protein production” value in assay [3] (NHBE cells, genistein pretreatment) is on record as “significantly reduced”. Further, the “TGF-β1-induced PAI-1 protein production” value in assay [3] (genistein 1 μM pretreatment, TGF-β1 2 ng/ml) is 360700 ± 10500 pg/mL; in assay [3] (genistein 5 μM pretreatment, TGF-β1 2 ng/ml), 306.0 ± 5.3 pg/mL; in assay [3] (genistein 5 mmol/L pretreatment, TGF-β1 2 ng/mL), 306.0 ± 5.3 pg/mL. The “Allergic inflammation and airway hyperreactivity” value in assay [4] was “reduced allergic inflammation and improved airway hyperreactivity”.
Turning to “TGF-β1: recombinant human TGF-β1 (R&D Systems), stimulus of PAI-1 production [reference compound]”, the “Increase in PAI-1 mRNA and protein production” value in assay [3] (NHBE cells, TGF-β1 2 ng/mL for 6 hours) was “about 10 fold”.
